# Test results taken from US7282589B2, “Acid addition salt of optically active piperidine compound and process for preparing the same” (UBE Industries, Ltd., priority 1996, dated 2007).
# Read-outs that look alike come from different tables or passages of the source.
# Experiments:
# [1] = test system: 7 days homologous PCA reaction; assay: Inhibitory effect on 7 days homologous PCA reaction; assay type: in vivo, Hartley male guinea pigs; conditions: for Inhibitory ratio (%): p.o., 2 hours before antigen
# Protocol: By using Hartley male guinea pigs with a body weight of 250 to 550 g, inhibitory effect on PCA reaction was tested according to the method of Levine et al. (Journal of Immunology, vol. 106, p. 29, 1971 (B. B. Levine, H. Chang, Jr., and N. M. Vaz, J. Immunol. 106, 29 (1971))). 0.05 ml of guinea pig anti-BPO.BGG-IgE serum diluted 32-fold with a physiological saline was hypodermically administrated to the guinea pig through two points of right and left sandwiching the median line of the back which had been shaved one day before.
# After 7 days, 1 ml of a 1% Evans Blue physiological saline solution containing 500 μg of benzylpenicilloyl bovine serum albumin (BPO.BSA) was intravenously administrated to induce a PCA reaction. Thirty minutes later, exsanguination was carried out, and the skin was peeled off and the amount of the leaked dye was measured according to the method of Katayama et al. (Microbiological Immunology, vol. 22, p. 89, 1978 (S. Katayama, H. Shinoya and S. Ohtake, Microbiol. Immunol., 22, 89 (1978))). The test animals were fasted overnight (about 16 hours) and the test substances were orally administrated 2 hours before the administration of the antigen.
# [2] = test system: histamine-induced death; assay: Protective effects on histamine-induced death; assay type: in vivo, Hartley male guinea pigs; conditions: for Survival ratio (%): p.o., 2 hours before 1.25 mg/kg histamine hydrochloride i.v.; for ED50: Cavia porcellus, po, obtained from the dose-response curve of Table 1
# Protocol: By using Hartley male guinea pigs with a body weight of 250 to 550 g, protective effects on histamine-induced death were tested according to the method of Lands et al. (Journal of Pharmacological Experimental Therapy, vol. 95, p. 45, 1949 (A. M. Lands, J. O. Hoppe, O. H. Siegmund, and F. F. Luduena, J. Pharmacol. Exp. Ther., 95, 45 (1949))). Test animals were fasted overnight (about 14 hours), and then 5 ml/kg of a test substance was orally administrated. Two hours after administration of the test substance, 1.25 mg/kg of histamine hydrochloride was intravenously administrated to induce histamine shock. After induction, symptom of the test animals was observed and the histamine-shock appearing time was measured, and termination of respiration or restoration was also observed.
# [3] = Stability test (40° C. and 75% relative humidity, one month); assay type: physicochemical; conditions: for physicochemical stability (conclusion in words): from the test results of Table 4
# Protocol: After pulverizing the above-mentioned respective compounds, powder passed through a 500 μm sieve was made to be a test sample. Respective samples were divided and placed in glass Petri dishes and preserved at 40° C. and 75% relative humidity. One month later, the samples were taken out, and a weight of contained analogues and a content of (R)-isomer by racemization were measured and compared with those at the beginning of the test.
# The sample was dissolved in a mobile phase and the solution was adjusted so as to contain about 0.1% of the sample per ml. With regard to 25 μl of the sample solution, percentages of the respective peak area were measured by a liquid chromatography using an automatic integration method.
# About 5 mg of the sample was dissolved in the mobile phase and the solution was adjusted so as to contain about 0.1% of the sample per ml. With regard to 1.5 μl of the sample solution, percentages of the respective peak area were measured by a liquid chromatography using an automatic integration method, and an amount of the (R)-isomer (%) was calculated by the following equation.
# [formula] • Q^S: percentage of peak area of (S)-isomer • Q^R: percentage of peak area of (R)-isomer Operation Conditions
# [4] = Experiment 1: crystallization of acid addition salts of (S)-piperidine compound (I); assay type: physicochemical
# Protocol: (S)-Piperidine compound of the formula (I) was dissolved in an organic solvent, and after adding an acid shown in Table 3 to make a uniform solution, the mixture was allowed to stand. When no precipitate is obtained, after the solvent was removed, a less polar solvent was added to the residue and the mixture was allowed to stand again. Except for the case where the acid addition salt is oily or syrupy, the obtained solid material was collected by filtration and dried under reduced pressure.
# [5] = Pharmacological effects of the metabolite compared with the (S)-ester
# [6] = 1 month later, 40° C. and 75% relative humidity
compound,measurement,setting,value
"CCOC(=O)CCCN1CCC(O[C@H](c2ccc(Cl)cc2)c2ccccn2)CC1.O=C(O)/C=C/C(=O)O [(R)-ester, ethyl (R)-4-[4-[(4-chlorophenyl) (2-pyridyl)methoxy]piperidino]butanoate fumaric acid salt]",Inhibitory ratio (%),[1]; 0.3 mg/kg,−3.1%
same,Inhibitory ratio (%),[1]; 1.0 mg/kg,13.6%
same,Inhibitory ratio (%),[1]; 3.0 mg/kg,45.8%
same,Inhibitory ratio (%),[1]; 10.0 mg/kg,59.5%
same,Survival ratio (%),[2]; 0.3 mg/kg,0%
same,Survival ratio (%),[2]; 0.6 mg/kg,0%
same,Survival ratio (%),[2]; 1.0 mg/kg,50.0%
same,Survival ratio (%),[2]; 3.0 mg/kg,62.5%
same,Survival ratio (%),[2]; 10.0 mg/kg,100%
same,ED50,[2],1 mg/kg
"CCOC(=O)CCCN1CCC(O[C@@H](c2ccc(Cl)cc2)c2ccccn2)CC1.O=C(O)/C=C/C(=O)O [(S)-ester, ethyl (S)-4-[4-[(4-chlorophenyl)(2-pyridyl)methoxy]piperidino]butanoate fumaric acid salt]",Inhibitory ratio (%),[1]; 0.01 mg/kg,37.3%
same,Inhibitory ratio (%),[1]; 0.02 mg/kg,46.3%
same,Inhibitory ratio (%),[1]; 0.03 mg/kg,56.9%
same,Inhibitory ratio (%),[1]; 0.06 mg/kg,63.4%
same,Inhibitory ratio (%),[1]; 0.1 mg/kg,58.8%
same,potency relative to the (R)-ester,"[1]; compared at the dose which inhibits 50% of the maximum value (i.e., 35%)",≥ 100 fold
same,Amount of moisture absorption,[3]; [6],0.45%
same,Content of (R)-isomer,[3]; [6],1.15%
same,Content of analogue substance,[3]; [6],2.65%
same,Content of (R)-isomer,[3]; Beginning,0.87%
same,Content of analogue substance,[3]; Beginning,1.72%
same,hygroscopicity (in words),[3]; as shown in the stability test results (Table 4),hygroscopic
same,physicochemical stability (conclusion in words),[3],physicochemically unstable
same,Survival ratio (%),[2]; 0.01 mg/kg,0%
same,Survival ratio (%),[2]; 0.02 mg/kg,42.9%
same,Survival ratio (%),[2]; 0.03 mg/kg,62.5%
same,Survival ratio (%),[2]; 0.06 mg/kg,100%
same,Survival ratio (%),[2]; 0.1 mg/kg,100%
same,ED50,[2],0.023 mg/kg
same,potency relative to the (R)-ester,[2]; ratio of ED50 values,about 43 fold
"O=C(O)CCCN1CCC(O[C@@H](c2ccc(Cl)cc2)c2ccccn2)CC1.O=S(=O)(O)c1ccccc1 [Benzenesulfonic acid salt, (S)-4-[4-[(4-chlorophenyl)(2-pyridyl)-methoxy]piperidino]butanoic acid monobenzenesulfonic acid salt]",Characteristics of acid addition salt,[4],non-hygroscopic crystals
same,Amount of moisture absorption,[3]; [6],0.18%
same,Content of (R)-isomer,[3]; [6],0.39%
same,Content of analogue substance,[3]; [6],0.16%
same,Content of (R)-isomer,[3]; Beginning,0.37%
same,Content of analogue substance,[3]; Beginning,0.15%
same,physicochemical stability (conclusion in words),[3],excellent physicochemical stabilities
"O=C(O)CCCN1CCC(O[C@@H](c2ccc(Cl)cc2)c2ccccn2)CC1.O=C(O)c1ccccc1 [Benzoic acid salt, (S)-4-[4-[(4-chlorophenyl)(2-pyridyl)-methoxy]piperidino]butanoic acid monobenzoic acid salt]",Characteristics of acid addition salt,[4],non-hygroscopic crystals
same,Amount of moisture absorption,[3]; [6],0.05%
same,Content of (R)-isomer,[3]; [6],0.40%
same,Content of analogue substance,[3]; [6],1.20%
same,Content of (R)-isomer,[3]; Beginning,0.37%
same,Content of analogue substance,[3]; Beginning,1.20%
same,physicochemical stability (conclusion in words),[3],excellent physicochemical stabilities
"O=C(O)CCCN1CCC(O[C@@H](c2ccc(Cl)cc2)c2ccccn2)CC1 [Example 1, (S)-4-[4-[(4-chlorophenyl)(2-pyridyl)-methoxy]piperidino]butanoic acid]",pharmacological effects compared with the (S)-ester,[5],substantially shows the same pharmacological effects as the (S)-ester
C[C@H](O)C(=O)O [L-Lactic acid],Characteristics of acid addition salt,[4]; acid molar ratio 1,Oily product
